Results: patent US10196363B2, “Dihydropyrimidin-2-one compounds and medical use thereof” (JAPAN TOBACCO INC., priority 2014, dated 2019)
Like-named read-outs stand apart in the source and are kept apart here.

Columns and labels:
human RORγ = molecular target: T1, human RORγ (Homo sapiens, UniProt P51449); assay: In vitro assay of inhibitory effect against RORγ transcriptional activity (GAL4-hRORγ LBD luciferase reporter gene assay in CHO cells); assay type: cell-based; settings: for hRORγ luciferase activity, %-of-control: vehicle-control 0.2% DMSO alone = 100%
T1 construct: human RORγ, from Ser253 to Lys518; expressed in transfected cells; host or cells: CHO cells (Chinese hamster ovary), transient co-transfection with pG5-Luc
T1 sequence (P51449 253-518): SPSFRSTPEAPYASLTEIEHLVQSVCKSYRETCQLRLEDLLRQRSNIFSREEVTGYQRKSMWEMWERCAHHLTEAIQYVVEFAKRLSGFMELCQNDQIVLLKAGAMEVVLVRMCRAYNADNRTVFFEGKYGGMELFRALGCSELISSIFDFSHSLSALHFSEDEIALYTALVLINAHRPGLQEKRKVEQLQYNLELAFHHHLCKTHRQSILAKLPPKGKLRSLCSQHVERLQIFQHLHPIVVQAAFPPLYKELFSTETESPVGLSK
Experimental: (§1) In Vitro Assay of Inhibitory Effect Against RORγ Transcriptional Activity
(§2) Inhibitory effect of a test article on transcriptional activity of RORγ was measured by means of the following reporter gene assay.
(§3) cDNA encoding human and mouse RORγ ligand binding domain (LBD) were obtained based on the sequences of human RORγ (Genebank registered number NM_005060.3) and mouse RORγ (Genebank registered number NM_011281.2) (LBD sequence: human RORγ, from Ser253 to Lys518; mouse RORγ, from Ile251 to Lys516).
(§4) The LBD cDNA of human or mouse RORγ was inserted into pFA-CMV vector (Strategene), which expresses GAL4-DNA binding domain fusion protein. The resulting plasmids are hereinafter referred to as GAL4-hRORγ plasmid and GAL4-mRORγ plasmid, respectively.
(§5) GAL4-hRORγ plasmid or GAL4-mRORγ plasmid was transiently co-transfected into Chinese hamster ovary cells (CHO cells) with pG5-Luc (Promega), a reporter plasmid expressing firefly luciferase depending on GAL4.
(§6) TransIT (Registered trademark) CHO transfection reagent (Mirus) was used to co-transfect GAL4-hRORγ plasmid or GAL4-mRORγ plasmid into CHO cells with pG5-Luc plasmid. One day before the assay, CHO cells were suspended in HAM F-12 Nutrient medium containing 10 v/v % fetal bovine serum and seeded at 6×10^6 cells per 175 cm^2 cell culture flask. Fifty four micro litters of TransIT (Registered trademark) CHO reagent was added into a 15 ml tube containing 1.16 mL of HAM F-12 Nutrient medium without fetal bovine serum, and mixed and incubated at room temperature for 10 min. Thirty six micro litters of plasmid solution containing the GAL4-hRORγ plasmid (400 ng), pG5-Luc plasmid (9000 ng) and pcDNA3 plasmid (8600 ng) were added into the tube and mixed gently. In case of mouse assay, a plasmid solution containing the GAL4-mRORγ plasmid (250 ng), pG5-Luc plasmid (9000 ng) and pcDNA3 plasmid (8750 ng) was added, instead. The mixture was incubated at room temperature for 10 min. Nine micro litters of CHO Mojo Reagent were then added into each tube and mixed gently. The mixture was incubated at room temperature for 10 min. The resultant transfection reagent was applied to the cell culture. After incubation at 37° C., 5% CO2 for 4 hours, the plasmid-transfected CHO cells were harvested with a trypsin treatment. The collected cells were resuspended in HAM F-12 Nutrient medium supplemented with 10 v/v % fetal bovine serum and plated into a 384-well-white plate at 8,000 cells/50 μL/well. The plate was incubated at room temperature for 1 hour and then further incubated at 37° C., 5% CO2 for 3 hours. The test articles were dissolved in dimethylsulfoxide (DMSO) to obtain a concentration of 10 mM. The resulting solution was diluted with a medium just before use and added to the cells in the plate to prepare 8 different concentrations of the test article. The final concentration of DMSO was 0.2 v/v %. After the addition of the test articles, the cells were incubated at 37° C., 5% CO2 for 2 days.
(§7) RORγ transcriptional activity was detected as the intracellular luciferase activity using SteadyLite HTS Reporter Gene Assay System (Perkin Elmer). StedyLite Reagent was diluted five-fold into a solution containing Extension reagent (10 mM Tricine, 0.2% w/v BSA, 0.02% v/v Tween-20) to obtain the luciferase substrate solution. After the measurement of the cell viability using Resazurin, the culture media in the plate were removed, and then the luciferase substrate solution was added into each well. After the incubation at room temperature for 10 minutes, luminescence of each well was measured by a microplate reader. The luciferase activity derived from the luminescence count in the vehicle-control well treated with 0.2% DMSO alone was defined as 100%, and the luciferase activity in the test article was calculated as a percentage (%-of-control) based on the value of the vehicle-control. EC50 value of test article was calculated by curve fitting with GraphPad Prism. […]

mouse RORγ = molecular target: T2, mouse RORγ (Mus musculus, UniProt P51450); assay: In vitro assay of inhibitory effect against RORγ transcriptional activity (GAL4-mRORγ LBD luciferase reporter gene assay in CHO cells); assay type: cell-based; settings: for mRORγ luciferase activity, %-of-control: value in parentheses beside the EC50 bound, vehicle-control 0.2% DMSO alone = 100%
T2 construct: mouse RORγ, from Ile251 to Lys516; expressed in transfected cells; host or cells: CHO cells (Chinese hamster ovary), transient co-transfection with pG5-Luc
T2 sequence (P51450 251-516): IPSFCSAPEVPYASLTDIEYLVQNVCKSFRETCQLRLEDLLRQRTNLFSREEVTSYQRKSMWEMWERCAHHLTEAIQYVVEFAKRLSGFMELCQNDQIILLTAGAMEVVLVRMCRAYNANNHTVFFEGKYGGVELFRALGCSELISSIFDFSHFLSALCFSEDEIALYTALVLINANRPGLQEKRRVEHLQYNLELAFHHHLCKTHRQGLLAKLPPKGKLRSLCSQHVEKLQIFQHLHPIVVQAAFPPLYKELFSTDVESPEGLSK
Experimental: as §1, §2, §3, §4, §5, §6, §7

[1] = GAL4-hRORγ LBD / pG5-Luc in CHO cells, 2 days incubation
[2] = GAL4-mRORγ LBD / pG5-Luc in CHO cells, 2 days incubation
[3] = GAL4-hRORγ LBD luciferase reporter, CHO cells, read-out: LUC EC50 hRORγ
[4] = value in parentheses beside the EC50 bound
[5] = GAL4-mRORγ LBD luciferase reporter, CHO cells, read-out: LUC EC50 mRORγ

| EC50 (human RORγ; [1]) | EC50 (mouse RORγ; [2]) | Structure (SMILES) | other results |
| --- | --- | --- | --- |
| 19 nM | 24 nM | CC(C)C1=CN(CCC(C)C(=O)O)C(=O)NC1(C)c1ccc(OCC(C)(C)C)c(Cl)c1 (mixture of isomers) [Example 21] |  |
| 55 nM | 32 nM | CC(C)C1=CN(CCCC(=O)O)C(=O)NC1(C)c1ccc(OCC(C)(C)C)c(Cl)c1 (racemic) [Example 9] |  |
| 51 nM | 28 nM | CC(C)C1=CN(CCCCC(=O)O)C(=O)NC1(C)c1ccc(OCC(C)(C)C)c(Cl)c1 (racemic) [Example 18] |  |
| 25 nM | 16 nM | CC(C)CCc1ccc(C2(C)NC(=O)N(CCCC(=O)O)C=C2C(C)C)cc1Cl (racemic) [Example 27] |  |
| 187 nM | 82 nM | CCCCc1ccc(C2(C)NC(=O)N(CCCC(=O)O)C=C2C(C)C)cc1Cl (racemic) [Example 28] |  |
| 36 nM | 21 nM | CCCCCc1ccc(C2(C)NC(=O)N(CCCC(=O)O)C=C2C(C)C)cc1Cl (racemic) [Example 53] |  |
| 251 nM | 133 nM | CCCCc1ccc(C2(C)NC(=O)N(CCCC(=O)O)C=C2C(C)C)cc1F (racemic) [Example 70] |  |
| 746 nM | 502 nM | CCCCc1ccc(C2(C)NC(=O)N(CCCC(=O)O)C=C2C(C)C)cc1 (racemic) [Example 84] |  |
| 1160 nM | 616 nM | CC(C)Cc1ccc(C2(C)NC(=O)N(CCCC(=O)O)C=C2C(C)C)cc1 (racemic) [Example 106] |  |
| 14900 nM | 11000 nM | CCOC(=O)c1ccc(C2(C)NC(=O)N(CCC(=O)O)C=C2C(C)C)cc1Cl (racemic) [Example 114] |  |
| 2610 nM | 1130 nM | CC(C)=Cc1ccc(C2(C)NC(=O)N(CCCC(=O)O)C=C2C(C)C)cc1 (racemic) [Example 188] |  |

The remaining lines, values behind:

| Structure (SMILES) | EC50 (human RORγ; [1]) | EC50 (mouse RORγ; [2]) | other results |
| --- | --- | --- | --- |
| CC(C)C[S+]([O-])c1ccc([C@]2(C)NC(=O)N(CCC(=O)O)C=C2C(C)C)cc1Cl (mixture of isomers) [Example 215] |  |  | EC50 (human RORγ; [3]): > 20000 nM; hRORγ luciferase activity, %-of-control (human RORγ; [4]): (77%); EC50 (mouse RORγ; [5]): > 20000 nM; mRORγ luciferase activity, %-of-control (mouse RORγ): (70%) |
| CC(C)CC[S+]([O-])c1ccc([C@]2(C)NC(=O)N(CCC(=O)O)C=C2C(C)C)cc1Cl (mixture of isomers) [Example 217] |  |  | EC50 (human RORγ; [3]): > 20000 nM; hRORγ luciferase activity, %-of-control (human RORγ; [4]): (90%); EC50 (mouse RORγ; [5]): > 20000 nM; mRORγ luciferase activity, %-of-control (mouse RORγ): (77%) |
| CC(C)C1=CN(CCC(=O)O)C(=O)N[C@@]1(C)c1ccc([S+]([O-])C2CCCC2)c(Cl)c1 (mixture of isomers) [Example 223] |  |  | EC50 (human RORγ; [3]): > 20000 nM; hRORγ luciferase activity, %-of-control (human RORγ; [4]): (78%); EC50 (mouse RORγ; [5]): > 20000 nM; mRORγ luciferase activity, %-of-control (mouse RORγ): (70%) |
| CC(C)(C)COc1ccc(C2NC(=O)N(CCCC(=O)O)C=C2C(C)(C)C)cc1Cl (racemic) [Example 1] | 88 nM | 60 nM |  |
| CC(C)(C)COc1ccc(C2NC(=O)NC=C2C(C)(C)C(=O)O)cc1Cl (racemic) [Example 2] | > 20000 nM | 13100 nM | hRORγ luciferase activity, %-of-control (human RORγ; value in parentheses beside the > EC50 bound): (55%) |
| CC(C)(C)C1=CN(CCCC(=O)O)C(=O)NC1c1ccc(OCCC2CCCCC2)c(Cl)c1 (racemic) [Example 3] | 182 nM | 61 nM |  |
| CC(C)(C)COc1ccc(C2NC(=O)NC=C2C(C)(C)CC(=O)O)cc1Cl (racemic) [Example 4] | 1440 nM | 675 nM |  |
| CC(C)(C)COc1ccc(C2NC(=O)NC=C2C(C)(C)CCC(=O)O)cc1Cl (racemic) [Example 7] | 152 nM | 110 nM |  |
| CC(C)(C)CCc1ccc(C2NC(=O)N(CCCC(=O)O)C=C2C(C)(C)C)cc1Cl (racemic) [Example 8] | 21 nM | 22 nM |  |
| CC(C)C1=CN([C@H]2C[C@@H](C(=O)O)C2)C(=O)NC1(C)c1ccc(OCC(C)(C)C)c(Cl)c1 (mixture of isomers) [Example 16] | 362 nM | 137 nM |  |
| CC(C)C1=CN([C@H]2C[C@H](C(=O)O)C2)C(=O)NC1(C)c1ccc(OCC(C)(C)C)c(Cl)c1 (mixture of isomers) [Example 17] | 206 nM | 153 nM |  |
| CC(C)(C)CCc1ccc(C2(C)NC(=O)N(CCCC(=O)O)C=C2C(C)(C)C)cc1Cl (racemic) [Example 22] | 17 nM | 29 nM |  |
| CC(C)(C)CCc1ccc(C2(C)NC(=O)N(CCCC(=O)O)C=C2CC(C)(C)C)cc1Cl (racemic) [Example 23] | 42 nM | 41 nM |  |
| CC(C)C1=CN(CCCC(=O)O)C(=O)NC1(C)c1ccc(CCC(C)(C)C)cc1 (racemic) [Example 26] | 364 nM | 217 nM |  |
| CC(C)C1=CN([C@H]2CC[C@H](C(=O)O)CC2)C(=O)NC1(C)c1ccc(CCC(C)(C)C)c(Cl)c1 (mixture of isomers) [Example 29] | 36 nM | 49 nM |  |
| CC(C)C1=CN([C@H]2CC[C@@H](C(=O)O)CC2)C(=O)NC1(C)c1ccc(CCC(C)(C)C)c(Cl)c1 (mixture of isomers) [Example 30] | 60 nM | 47 nM |  |
| CC(C)(C)COc1ccc(C2NC(=O)NC=C2C2CC(C(=O)O)C2)cc1Cl (racemic) [Example 62] | 665 nM | 520 nM |  |
| CC(C)C1=CN(C[C@H]2C[C@H](C(=O)O)C2)C(=O)NC1(C)c1ccc(CCC(C)(C)C)c(Cl)c1 (mixture of isomers) [Example 80] | 16 nM | 17 nM |  |
| CC(C)(C)CCc1ccc(C2(C)NC(=O)N(CCCC(=O)O)C=C2C2CN(S(C)(=O)=O)C2)cc1Cl (racemic) [Example 81] | 2580 nM | 2490 nM |  |
| CCCCc1ccc(C2(C)NC(=O)N(CCCC(=O)O)C=C2C(C)C)cc1OCc1ccccc1 (racemic) [Example 85] | 545 nM | 368 nM |  |
| CC1=C(C(C)C)C(C)(c2ccc(CCC(C)(C)C)c(Cl)c2)NC(=O)N1CCCC(=O)O (racemic) [Example 90] | 15 nM | 18 nM |  |
| CC(C)C1=CN(CCCC(=O)O)C(=O)NC1(C)c1ccc(OCCC(F)(F)F)cc1 (racemic) [Example 105] | 2790 nM | 1690 nM |  |
| CC(C)(C)C#Cc1ccc(C2NC(=O)N(CCCC(=O)O)C=C2C(C)(C)C)cc1Cl (racemic) [Example 187] | 172 nM | 63 nM |  |
